From patent publication US10562857B2 (AFASCI, Inc., priority 2015, dated 2020)
Entries after “also recorded” stand apart in the source; their conditions may differ.

Assays:
[1] = biological target: T1, Cav3.2 channel (Homo sapiens, UniProt O95180); test: Whole-cell patch clamp of T-type Cav3.2 channel expressed in HEK293 cells; format: cell-based; details: for inhibition at 1 µM: HEK293, Table 1 primary screening; for IC50: Table 1, tested at at least 4 concentrations, read-out: IC50
T1 construct: expressed in transfected cells; host or cells: HEK-293, tetracycline inducible expression system (Invitrogen)

[2] = tested on: CFA mice; test: Complete Freund's Adjuvant (CFA)-induced inflammatory pain in mice, von Frey test; format: in vivo, mouse
Experimental: FIG. 7. Effects of EXAMPLE-96, 107 or 115 (each 30 mg/kg, I.P.) or gabapentin (as a benchmark, 100 mg/kg, I.P) on Complete Freund's Adjuvant (CFA)-induced inflammation in male, mice (C57BL/6, ˜2 months old; n=8 mice per group). Mechanical pain threshold assessment of CFA mice's left hindpaws were measured using von Frey monofilament test at 0.5, 1, 2, 4, and 6 hours after treatment.
Because knockout or antisense knockdown of the Cav3.2 isoform produces analgesic effects in neuropathic pain as well as in inflammatory pain in mice (Choi et al., 2007), we used the Complete Freund adjuvant (CFA)-inflammatory pain in mice to investigate the drug effects. EXAMPLE-96, -115, and -107 (each at 30 mg/kg, I.P.) and a reference gabapentin (100 mg/kg, I.P.) was individually administered to mice that had CFA-induced inflammation on their left hindpaws.

[3] = tested on: SNI mice; test: Spared nerve injury (SNI) mice, Hargreaves thermal test; format: in vivo, mouse; details: 30 mg/kg, 0.2 mL I.P.
Experimental: FIG. 1A. Examples of compounds that mitigate neuropathic pain induced by Spared Nerve Injury (SNI) in mice. The withdrawal latencies of the mice's left hindpaws (injured site) in response to thermal stimulation (Hargreaves test). Each SNI mouse received either EXAMPLE (EX)-11, -14, -38, -62, or 113, or gabapentin, as benchmark (each 30 mg/kg, 0.2 mL I.P.), or vehicle (0.2 mL I.P. 2% DMSO in 0.5% Hydroxyl Propyl Cellulose, HPC). […] 40 seconds were cut off in order to prevent tissue damage (n=8 per group).
(§1) T-channel specific inhibitors are not yet available for clinical treatment of neuropathic pain. The spared nerve injury (SNI) model, one of the reliable neuropathic pain models in mice and rats (Decosterd and Woolf, 2000), was used to assess the effects of the representative compounds.
(§2) Of the three branches of the sciatic nerve, the tibial and common peroneal nerves of the mice (C57BL/6, male, 25-30 g, Harlan) were cut and ligated, leaving the sural nerve intact. Pre-surgery baselines (100%) of the thermal and mechanical pain thresholds of the ipsilateral hind paws were measured using the Hargreaves thermal stimulator (Hargreaves et al., 1988) and von Frey hair monofilaments (up-down method, Chaplan et al., 1994), respectively. Mice underwent the SNI surgery on their left hind leg. Two weeks post-surgery, the thermal thresholds of each mouse were reassessed.
(§3) EXAMPLE-11, 14, 38, 62, or 113 (FIGS. 1A and B) and EXAMPLE-12, 16, 19, 39, or 44 (FIGS. 2A and B) were administered at 30 mg/kg (0.2 mL I.P.) in a vehicle (pure DMSO to dissolve the powder first and then add 0.5% Hydroxyl Propyl Cellulose, HPC, to contain 2% DMSO in injection solution). All drug solutions used the same vehicle, unless specified otherwise.

[4] = tested on: SNI mice; test: Spared nerve injury (SNI) mice, von Frey monofilament test; format: in vivo, mouse; details: 30 mg/kg, 0.2 mL I.P.
Excerpt: FIG. 1B. Mechanical pain threshold assessment (using von Frey monofilament test) of the same cohort of SNI mice's left hindpaws.
as §1, §2, §3

[5] = tested on: SNI rats; test: Spared nerve injury (SNI) rats, Hargreaves thermal test; format: in vivo, rat; details: 30 mg/kg, 1 mL I.P.
Experimental: FIG. 3A. Spared Nerve Injury (SNI) rats' left hindpaw withdrawal latencies in response to thermal stimulation (Hargreaves test). Each SNI rat received either EXAMPLE-106, 107, or 115, (each 30 mg/kg, 1 mL I.P.), or vehicle (2% DMSO in 0.5% HPC). Sham rats also received vehicle I.P. injections. […] 40 seconds were cutoff in order to prevent tissue damage. The sham-vehicle serves as a positive control (n=8 per treatment group).
(§4) In additional examples shown here, the analgesic effects were further evaluated in another rat species. Baseline thermal and mechanical thresholds of male rats (Sprague-Dawley rats, 275 g-325 g, Harlan) were taken prior to surgery; baseline thresholds were measured on the rats' left hindpaws. Thirty-two rats underwent the SNI surgery on their left hind leg; 8 rats underwent surgery without injury of the nerves as a sham group. Two weeks post-surgery, the thermal thresholds of each rat were reassessed. […] Each rat received either EXAMPLE-106, -107, -115 (each 30 mg/kg, 1 mL I.P.), or vehicle (2% DMSO in 0.5% HPC). Thermal and mechanical thresholds were measured at 1, 2, 3, 4, 5, 6, 7, and 8 hours post-treatment/dosing. […] The drug actions started around 1 hour post-injection and peaked between 2 and 3 hours, and the drug effects gradually declined to pre-treatment levels over 6-7 hours (FIGS. 3A and B).

[6] = tested on: SNI rats; test: Spared nerve injury (SNI) rats, von Frey monofilament test; format: in vivo, rat
Experimental: FIG. 3B. Mechanical pain threshold assessment (von Frey monofilament test) of SNI rats' left hindpaws. Each SNI rat received either EXAMPLE-106, -107, and -115 (each 30 mg/kg, 1 mL I.P.), or vehicle (1 mL I.P. 2% DMSO in 0.5% HPC). Sham rats also received vehicle I.P. injections. […] The sham-vehicle serves as a positive control. Thermal and mechanical pain responses were measured once every hour for 8 consecutive hours after I.P. treatment (n=8 rats per treatment group).
FIG. 4. Mechanical pain threshold assessment (von Frey monofilament test) of left hindpaws in another cohort of SNI rats. Each SNI rat received either EXAMPLE-128, -130, -132, or Z944 (as a reference compound, each 10 mg/kg, 2 mL oral gavage, P.O.). […] Mechanical pain responses were measured at pre-dosing, 1, 2, 4, and 6 hours post-treatment using von Frey monofilament test (n=8 rats per group).
as §4
In another cohort of SNI rats ((n=8 per group)), mechanical thresholds were measured at pre-dosing, 1, 2, 4, and 6 hours post-treatment using von Frey monofilament test.

T1 sequence (O95180 whole entry): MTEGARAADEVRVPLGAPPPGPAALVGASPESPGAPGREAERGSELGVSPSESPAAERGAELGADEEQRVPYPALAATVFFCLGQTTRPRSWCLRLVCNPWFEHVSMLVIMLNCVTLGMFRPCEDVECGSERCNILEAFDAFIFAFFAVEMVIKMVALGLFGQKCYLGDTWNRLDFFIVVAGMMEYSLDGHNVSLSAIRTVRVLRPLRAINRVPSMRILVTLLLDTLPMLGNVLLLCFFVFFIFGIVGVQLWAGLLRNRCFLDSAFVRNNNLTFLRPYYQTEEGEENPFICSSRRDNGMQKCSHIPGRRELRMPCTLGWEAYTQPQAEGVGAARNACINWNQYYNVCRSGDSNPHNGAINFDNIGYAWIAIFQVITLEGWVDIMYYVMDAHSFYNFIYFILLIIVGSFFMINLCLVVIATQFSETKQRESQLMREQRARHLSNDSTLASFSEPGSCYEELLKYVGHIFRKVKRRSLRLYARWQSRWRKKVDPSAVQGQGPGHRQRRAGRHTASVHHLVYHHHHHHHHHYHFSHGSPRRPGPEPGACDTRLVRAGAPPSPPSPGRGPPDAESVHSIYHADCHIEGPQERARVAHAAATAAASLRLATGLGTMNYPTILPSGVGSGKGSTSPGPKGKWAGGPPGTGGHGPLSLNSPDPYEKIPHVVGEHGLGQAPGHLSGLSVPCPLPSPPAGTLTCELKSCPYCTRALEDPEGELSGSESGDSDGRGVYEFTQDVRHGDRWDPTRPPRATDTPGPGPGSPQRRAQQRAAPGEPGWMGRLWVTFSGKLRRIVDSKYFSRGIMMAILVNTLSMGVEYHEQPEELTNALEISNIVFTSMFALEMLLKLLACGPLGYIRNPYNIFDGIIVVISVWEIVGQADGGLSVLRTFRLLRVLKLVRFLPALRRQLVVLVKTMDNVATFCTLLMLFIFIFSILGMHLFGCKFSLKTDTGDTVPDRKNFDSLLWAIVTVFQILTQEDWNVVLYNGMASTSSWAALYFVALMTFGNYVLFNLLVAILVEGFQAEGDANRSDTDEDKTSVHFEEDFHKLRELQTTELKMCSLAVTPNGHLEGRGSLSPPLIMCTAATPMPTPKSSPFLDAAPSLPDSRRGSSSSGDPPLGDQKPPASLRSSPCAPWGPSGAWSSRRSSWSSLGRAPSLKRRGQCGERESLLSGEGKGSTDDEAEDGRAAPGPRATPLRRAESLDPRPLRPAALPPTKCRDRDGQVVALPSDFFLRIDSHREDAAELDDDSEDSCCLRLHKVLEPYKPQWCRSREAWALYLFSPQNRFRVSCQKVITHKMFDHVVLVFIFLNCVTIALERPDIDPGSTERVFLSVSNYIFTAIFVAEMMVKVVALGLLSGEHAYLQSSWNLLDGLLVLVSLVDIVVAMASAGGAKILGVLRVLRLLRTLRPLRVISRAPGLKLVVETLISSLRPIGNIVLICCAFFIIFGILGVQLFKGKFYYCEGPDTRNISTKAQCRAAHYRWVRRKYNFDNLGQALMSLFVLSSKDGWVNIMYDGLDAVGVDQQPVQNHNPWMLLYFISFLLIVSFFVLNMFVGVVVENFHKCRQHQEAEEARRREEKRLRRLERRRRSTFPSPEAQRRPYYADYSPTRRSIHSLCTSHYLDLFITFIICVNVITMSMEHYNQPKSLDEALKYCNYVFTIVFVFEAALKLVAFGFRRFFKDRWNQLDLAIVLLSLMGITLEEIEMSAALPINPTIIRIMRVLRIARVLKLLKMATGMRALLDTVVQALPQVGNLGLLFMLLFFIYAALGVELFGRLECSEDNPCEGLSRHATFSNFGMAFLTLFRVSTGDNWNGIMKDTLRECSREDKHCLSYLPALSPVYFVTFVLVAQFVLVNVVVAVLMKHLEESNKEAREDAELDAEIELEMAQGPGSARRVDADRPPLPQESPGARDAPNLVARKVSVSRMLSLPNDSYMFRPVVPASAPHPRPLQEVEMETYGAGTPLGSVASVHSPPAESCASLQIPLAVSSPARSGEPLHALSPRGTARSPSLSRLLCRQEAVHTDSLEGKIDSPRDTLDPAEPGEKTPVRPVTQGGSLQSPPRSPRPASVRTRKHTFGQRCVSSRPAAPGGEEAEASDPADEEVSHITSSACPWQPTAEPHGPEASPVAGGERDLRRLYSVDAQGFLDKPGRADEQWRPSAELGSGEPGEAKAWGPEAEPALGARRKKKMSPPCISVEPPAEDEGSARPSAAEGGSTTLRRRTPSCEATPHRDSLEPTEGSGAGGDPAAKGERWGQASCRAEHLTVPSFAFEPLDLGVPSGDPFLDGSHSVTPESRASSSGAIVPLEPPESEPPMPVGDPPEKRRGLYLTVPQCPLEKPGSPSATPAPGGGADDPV

| Compound | IC50 [1] [nM] | left hindpaw withdrawal latency to thermal stimulation (hyperalgesia) [3] | mechanical pain threshold of left hindpaw (allodynia) [4] | other results |
| --- | --- | --- | --- | --- |
| CC(C)(C)NC(=O)CN1CCC(CNC(=O)c2ccccc2)CC1 [Example 96, N-((1-(2-(tert-Butylamino)-2-oxoethyl)piperidin-4-yl)methyl)benzamide] | – | – | – | inhibition at 1 µM [1]: 40%; mechanical pain threshold, CFA-induced inflammation ([2]; 30 mg/kg I.P.): showed an analgesic effect in mechanical pain |
| CC(C)CN1CCC2(CC1)CC2NC(=O)c1cc(Cl)cc(Cl)c1 (stereo not drawn) [Example 11, 3,5-Dichloro-N-(6-isobutyl-6-azaspiro[2.5]octan-1-yl)benzamide] | 420 | produced analgesic effects; also recorded: reduced hyperalgesia | produced analgesic effects; also recorded: reduced allodynia | – |
| O=C(NC1CCC12CCN(CCc1ccccc1)CC2)c1ccccc1 (stereo not drawn) [Example 62] | – | produced analgesic effects; also recorded: reduced hyperalgesia | produced analgesic effects; also recorded: reduced allodynia | inhibition at 1 µM [1]: 68% |
| CC(C)(C)NC(=O)CN1CCC2(CC[C@H]2NC(=O)c2cc(Cl)cc(Cl)c2)CC1 [Example 113, (R)—N-(7-(2-(tert-Butylamino)-2-oxoethyl)-7-azaspiro[3.5]nonan-1-yl)-3,5-dichlorobenzamide] | 640 | produced analgesic effects; also recorded: reduced hyperalgesia | produced analgesic effects; also recorded: reduced allodynia | – |
| O=C(NC1CC12CCN(CC(c1ccccc1)c1ccccc1)CC2)c1cc(Cl)cc(Cl)c1 (stereo not drawn) [Example 39, 3,5-Dichloro-N-(6-(2,2-diphenylethyl)-6-azaspiro[2.5]octan-1-yl)benzamide] | 60 | produced analgesic effects; also recorded: reduced hyperalgesia | produced analgesic effects; also recorded: reduced allodynia | – |
| CC(C)(C)CCN1CCC2(CC1)CC2NC(=O)c1cc(C(F)(F)F)cc(C(F)(F)F)c1 (stereo not drawn) [Example 19, N-(6-(3,3-Dimethylbutyl)-6-azaspiro[2.5]octan-1-yl)-3,5-bis(trifluoromethyl)benzamide] | 30 | produced analgesic effects; also recorded: reduced hyperalgesia | produced analgesic effects; also recorded: reduced allodynia | – |
| CC(C)(C)NC(=O)CN1CCC2(CC1)CC2NC(=O)c1cc(Cl)cc(Cl)c1 (stereo not drawn) [Example 14, N-(6-(2-(tert-Butylamino)-2-oxoethyl)-6-azaspiro[2.5]octan-1-yl)-3,5-dichlorobenzamide] | 30 | produced analgesic effects; also recorded: reduced hyperalgesia | produced analgesic effects; also recorded: reduced allodynia | – |
| O=C(CN1CCC(CNCC(=O)c2ccc[nH]2)CC1)Nc1ccccc1 [Example 106, 2-(4-(((2-Oxo-2-(1H-pyrrol-2-yl)ethyl)amino)methyl)piperidin-1-yl)-N-phenylacetamide] | – | – | – | left hindpaw withdrawal latency to thermal stimulation (hyperalgesia) [5]: elevated both thermal and mechanical thresholds; also recorded: reduced hyperalgesia; start of drug action post-injection ([6]; 30 mg/kg I.P., thermal and mechanical thresholds): around 1 hour; mechanical pain threshold of left hindpaw (allodynia) ([6]; 30 mg/kg, 1 mL I.P.): elevated both thermal and mechanical thresholds; also recorded: reduced allodynia |
| CC(C)(C)NC(=O)CN1CCC2(CC1)CC2NC(=O)c1cc(C(F)(F)F)cc(C(F)(F)F)c1 (stereo not drawn) [Example 16, N-(6-(2-(tert-Butylamino)-2-oxoethyl)-6-azaspiro[2.5]octan-1-yl)-3,5-bis(trifluoromethyl)benzamide] | 120 | produced analgesic effects; also recorded: reduced hyperalgesia | produced analgesic effects; also recorded: reduced allodynia | – |
| NCC1(CC(=O)O)CCCCC1 [gabapentin, reference compound] | – | reduced hyperalgesia | reduced allodynia | mechanical pain threshold, CFA-induced inflammation ([2]; 100 mg/kg I.P.): showed an analgesic effect in mechanical pain |
| CC(C)(C)OCCN1CCC2(CC1)CC2NC(=O)c1cc(Cl)cc(Cl)c1 (stereo not drawn) [Example 38, N-(6-(2-(tert-Butoxy)ethyl)-6-azaspiro[2.5]octan-1-yl)-3,5-dichlorobenzamide] | 40 | produced analgesic effects; also recorded: reduced hyperalgesia | produced analgesic effects; also recorded: reduced allodynia | – |
| CC(C)(C)CCN1CCC2(CC1)CC2NC(=O)c1cc(Cl)cc(Cl)c1 (stereo not drawn) [Example 12, 3,5-Dichloro-N-(6-(3,3-dimethylbutyl)-6-azaspiro[2.5]octan-1-yl)benzamide] | 50 | produced analgesic effects; also recorded: reduced hyperalgesia | produced analgesic effects; also recorded: reduced allodynia | – |
| COc1ccc(CCN2CCC3(CC2)CC3NC(=O)c2cc(Cl)cc(Cl)c2)cc1 (stereo not drawn) [Example 44, 3,5-Dichloro-N-(6-(4-methoxyphenethyl)-6-azaspiro[2.5]octan-1-yl)benzamide] | 100 | produced analgesic effects; also recorded: reduced hyperalgesia | produced analgesic effects; also recorded: reduced allodynia | – |
| O=C(NC1CC12CCN(Cc1ccccc1)CC2)c1cc(Cl)cc(Cl)c1 (stereo not drawn) [Example 15, N-(6-Benzyl-6-azaspiro[2.5]octan-1-yl)-3,5-dichlorobenzamide] | 80 | – | – | – |
